Test results as given in patent publication US7083779B2 (Council of Scientific and Industrial Research, priority 2003, dated 2006).

Assays:
P. falciparum = conditions: cited from earlier work

Row | SMILES | Reversibility of effect on cultured fibroblasts (cell viability and protein quantification) (cultured fibroblasts) | Cytotoxicity (cell viability) (cultured fibroblasts; 0.001 %) | LC50 against P. falciparum (P. falciparum) [µg/mL]
1 | [H]/N=C(\N/C(=N/[H])NCCCCCCNC(=N)NC(=N)Nc1ccc(Cl)cc1)Nc1ccc(Cl)cc1 [Chlorhexidine] | damage the cells irreversibly | cytotoxic even at 0.001% | 
2 | CC(=O)O[C@@H]1C[C@H]2C(C)(C)C(=O)CC[C@]2(C)[C@H]2CC[C@@]3(C)[C@H](c4ccoc4)OC(=O)[C@H]4O[C@]43[C@@]21C [dihydrogedunin] |  |  | 0.72 to 1.74
3 | CC(=O)O[C@@H]1C[C@H]2C(C)(C)C(=O)C=C[C@]2(C)[C@H]2CC[C@@]3(C)[C@H](c4ccoc4)C(=O)[C@H]4O[C@]43[C@@]21C [nimbinin] |  |  | 0.72 to 1.74
